In patent US10471043B2, “Compounds and methods of treating bacterial infections” (ULTUPHARMA AB, priority 2015, dated 2019):
Converted amounts (≈) assume the structure as drawn. Read-outs that look alike come from different tables or passages of the source.

Experiments:
[1] = test system: Staphylococcus aureus strain LMG15975; assay: MIC by broth micro-dilution, AM3/PBS 1:1; format: cell-based
Method: (§1) At first (Table 1), MIC is determined by broth micro-dilution method. The test medium is Antibiotic Medium 3 (AM3; Difco Ltd) mixed with Phosphate Buffered Saline (PBS) in proportions 1:1. Selected MIC values are verified using cation-adjusted Mueller Hinton Broth (MHB; BD). Cell concentration of tested pathogen is adjusted to between 3 and 5×10^5 cells per ml. To verify cell concentration of tested pathogen, viable cell counts are performed directly after each MIC-test by dilution method with PBS as a dilution solvent. Cells are counted on the agar plates with 50% strength Vegetable Peptone Broth (50% VPB; Oxoid Ltd) after 16 to 20 h of incubation at 37° C.
(§2) Cells of pathogen suspended in test medium are distributed to the wells and the plates are incubated for 16 to 20 h at 37° C. Negative controls are wells with the test medium only and positive controls are wells with the pathogen in test medium. The MIC is defined as the lowest concentration of each compound with no visible growth of pathogen.
Example compounds of formula I were examined for antibacterial activity against the Gram-positive bacterium Staphylococcus aureus strain LMG15975 using the above described method (Table 1).

[2] = in vitro; conditions: human, CC50 (μg/mL)
[3] = Cytotoxicity assay, WST-8; conditions: human, HepG2 cells, CC50 (μg/mL), HepG2, 48 hours, Table 1
[4] = test system: A. baumannii; assay: MIC by broth micro-dilution; format: cell-based; conditions: Acinetobacter baumannii, A. baumannii (G−), Table 2; read-out: MIC (μg/ml) A. baumannii
Method: as §1, §2

[5] = test system: Bacillus cereus; assay: MIC by broth micro-dilution; format: cell-based; conditions: Table 4, read-out: MIC (μg/ml) B. cereus
Method: as §1, §2

[6] = test system: S. aureus; assay: Antimicrobial Susceptibility Test by Broth Microdilution, M07-A9 CLSI; format: cell-based; conditions: Staphylococcus aureus
[7] = test system: S. epidermidis; assay: as above; format: cell-based; conditions: Staphylococcus epidermidis
[8] = test system: E. faecium; assay: as above; format: cell-based; conditions: Enterococcus faecium; E. faecium 7, Vancomycin-resistant, Table 5; read-out: MIC
[9] = test system: E. faecalis; assay: as above; format: cell-based; conditions: Enterococcus faecalis
[10] = test system: mupirocin-resistant strains of Staphylococcus aureus; assay: MIC against mupirocin-resistant strains; format: cell-based; conditions: Staphylococcus aureus; all 4 strains (V55, V86, V308, V321); read-out: MIC values for mupirocin
Method: as §1, §2

[11] = LMG15975, S. aureus LMG15975, Table 1, read-out: MIC
[12] = LMG15975, S. aureus LMG15975, Table 1, read-out: MIC (μg/ml)
[13] = LMG15975, S. aureus (G+), Table 2, read-out: MIC (μg/ml) S. aureus

SMILES | MIC [1, 11] [µM] | MIC [1, 12] [µg/mL] | CC50 at 48 h [3] [µM] | other results
CCCCCCCCC[C@@H]1CC(O)=C(C(=O)CCC)C(=O)O1 [Ex. 2A, (R)-3-butyryl-4-hydroxy-6-nonyl-5,6-dihydro-2H-pyran-2-one] | 3.2 to 6.4 | 1 to 2 |  | CC50 at 48 h [2]: 27 µM
CCCCCCCCC[C@H]1CC(O)=C(C(=O)CCC)C(=O)O1 [Ex. 2B, (S)-3-butyryl-4-hydroxy-6-nonyl-5,6-dihydro-2H-pyran-2-one] | 1.3 to 1.9 | 0.4 to 0.6 |  | CC50 at 48 h [2]: 25 µM
CCCCCCCCCCC1CC(O)=C(C(=O)CCCC)C(=O)O1 (stereo not drawn) [Ex. 3, 6-decyl-4-hydroxy-3-pentanoyl-5,6-dihydro-2H-pyran-2-one] | 1.2 to 1.8 | 0.4 to 0.6 | 13 | 
CCCCCCC/C=C/C1CC(O)=C(C(=O)CCC)C(=O)O1 (stereo not drawn) [Ex. 4, (E)-3-butyryl-6-(non-1-en-1-yl)-4-hydroxy-5,6-dihydro-2H-pyran-2-one] | 2.6 to 3.9 | 0.8 to 1.2 |  | CC50 at 48 h [2]: 36 µM
CCCCCCCCCC1CC(O)=C(C(=O)CC)C(=O)O1 (stereo not drawn) [Ex. 5, 4-hydroxy-6-nonyl-3-propionyl-5,6-dihydro-2H-pyran-2-one] | 2.2 | 0.65 | 50 | MIC [1, 13]: 0.7 µg/mL; MIC ([1]; LMG15975, Table 4, read-out: MIC (μg/ml) S. aureus): 0.7 µg/mL; MIC [4]: 32 to 48 µg/mL (≈ 108 to 162 µM); MIC [5]: ≤ 1 µg/mL
CCCCCCCCC1CC(O)=C(C(=O)CC)C(=O)O1 (stereo not drawn) [Ex. 6, 4-hydroxy-6-octyl-3-propionyl-5,6-dihydro-2H-pyran-2-one] | 4.3 | 1.2 | 55 | 
CCCCCCCCC1CC(O)=C(C(C)=O)C(=O)O1 (stereo not drawn) [Ex. 7, 3-acetyl-4-hydroxy-6-octyl-5,6-dihydro-2H-pyran-2-one] | 9.3 | 2.5 | 65 | 
CCCCCCCCCC1CC(O)=C(C(C)=O)C(=O)O1 (stereo not drawn) [Ex. 9, 3-acetyl-4-hydroxy-6-nonyl-5,6-dihydro-2H-pyran-2-one] | 2.1 to 4.3 | 1.5 to 2.5 | 71 | MIC [1, 13]: 1.5 to 2.5 µg/mL; MIC [4]: > 64 µg/mL
CCCCCCCCCCC1CC(O)=C(C(C)=O)C(=O)O1 (stereo not drawn) [Ex. 11, 3-acetyl-6-decyl-4-hydroxy-5,6-dihydro-2H-pyran-2-one] | 2.7 to 4 | 0.8 to 1.2 | 40 | 
CCCCCCCCCCC1CC(O)=C(C(=O)CCC)C(=O)O1 (stereo not drawn) [Ex. 12, 3-butyryl-6-decyl-4-hydroxy-5,6-dihydro-2H-pyran-2-one] | 1.9 to 2.6 | 0.6 to 0.8 | 25 | MIC [1, 13]: 0.6 to 0.8 µg/mL; MIC [4]: 8 to 16 µg/mL (≈ 24.7 to 49.3 µM)
CCCCCCCCC1CC(O)=C(C(=O)CCC)C(=O)O1 (stereo not drawn) [Ex. 13, 3-butyryl-4-hydroxy-6-octyl-5,6-dihydro-2H-pyran-2-one] | 2.7 to 5.1 | 0.8 to 1.5 | 30 | MIC [1, 13]: 0.8 to 1.5 µg/mL; MIC [4]: 24 to 32 µg/mL (≈ 81 to 108 µM)
CCCCCCCCCC1CC(O)=C(C(=O)CC(C)C)C(=O)O1 (stereo not drawn) [Ex. 15, 4-hydroxy-3-(3-methylbutanoyl)-6-nonyl-5,6-dihydro-2H-pyran-2-one] | 0.6 to 1.2 | 0.2 to 0.4 | 21 | 
CCCCCCCCCCCC1CC(O)=C(C(=O)CCC)C(=O)O1 (stereo not drawn) [Ex. 16, 3-butyryl-4-hydroxy-6-undecyl-5,6-dihydro-2H-pyran-2-one] | 0.3 to 0.6 | 0.1 to 0.2 |  | MIC [1, 13]: 0.1 to 0.2 µg/mL; MIC ([1]; LMG15975, S. aureus LMG 15975 (SLU), Methicillin-resistant, Table 5, read-out: MIC (μg/mL)): 0.1 to 0.2 µg/mL; MIC [4]: < 4 µg/mL; MIC ([6]; ATCC29213, S. aureus ATCC29213, QC strain, Table 5): 4 µg/mL (≈ 11.8 µM); MIC ([6]; S. aureus 7280, Methicillin-resistant): 8 µg/mL (≈ 23.6 µM); MIC ([6]; S. aureus MO17, Methicillin-sensitive, Table 5): 4 µg/mL (≈ 11.8 µM); MIC ([6]; S. aureus PICI, Methicillin-resistant, Table 5): 4 µg/mL (≈ 11.8 µM); MIC ([7]; S. epidermis RO7, Methicillin-sensitive, Table 5): 0.5 µg/mL (≈ 1.48 µM); MIC ([7]; S. epidermis Staph 1, Methicillin-resistant): 0.5 µg/mL (≈ 1.48 µM); MIC ([7]; S. epidermis TA12, Methicillin-resistant, Table 5): 1 µg/mL (≈ 2.95 µM); MIC [8]: 2 µg/mL (≈ 5.91 µM); MIC ([9]; E. faecalis 14, Vancomycin-resistant): 1 µg/mL (≈ 2.95 µM); MIC ([9]; E. faecalis 24, Vancomycin-sensitive, Table 5): 1 µg/mL (≈ 2.95 µM); CC50 at 48 h [2]: 19 µM
CCCCCCCCCC1CC(O)=C(C(=O)CCCCC)C(=O)O1 (stereo not drawn) [Ex. 18, 3-hexanoyl-4-hydroxy-6-nonyl-5,6-dihydro-2H-pyran-2-one] | 1.8 to 2.4 | 0.6 to 0.8 | 15 | MIC [1, 13]: 0.6 to 0.8 µg/mL; MIC [4]: 4 to 8 µg/mL (≈ 11.8 to 23.6 µM)
CCCC(=O)C1=C(O)CC(CCCCCCCC#N)OC1=O (stereo not drawn) [Ex. 19, 8-(5-butyryl-4-hydroxy-6-oxo-3,6-dihydro-2H-pyran-2-yl)octanenitrile] | 133 to 166 | 40 to 50 |  | CC50 at 48 h [2]: > 100 µM
CCCC(=O)C1=C(O)CC(CCCCCCCOC)OC1=O (stereo not drawn) [Ex. 20, 3-butyryl-4-hydroxy-6-(7-methoxyheptyl)-5,6-dihydro-2H-pyran-2-one] | 64 to 96 | 20 to 30 | 80 | 
CCCC(=O)C1=C(O)CC(CC(C)CCC=C(C)C)OC1=O (stereo not drawn) [Ex. 21, 3-butyryl-6-(2,6-dimethylhept-5-enyl)-4-hydroxy-5,6-dihydro-2H-pyran-2-one] | 6.5 to 9.7 | 2 to 3 |  | 
CCCC(=O)C1=C(O)CC(CC2CCCC2)OC1=O (stereo not drawn) [Ex. 22, 3-butyryl-6-(cyclopentylmethyl)-4-hydroxy-5,6-dihydro-2H-pyran-2-one] | 22 to 45 | 6 to 12 |  | 
COCCCCCCC1CC(O)=C(C(=O)CC2CCCC2)C(=O)O1 (stereo not drawn) [Ex. 23, 3-(2-cyclopentylacetyl)-4-hydroxy-6-(6-methoxyhexyl)-5,6-dihydro-2H-pyran-2-one] | 29 to 59 | 10 to 20 |  | 
CCCCCCCCCC1CC(O)=C(C(=O)CCOC)C(=O)O1 (stereo not drawn) [Ex. 24, 4-hydroxy-3-(3-methoxypropanoyl)-6-nonyl-5,6-dihydro-2H-pyran-2-one] | 6.1 to 15 | 2 to 5 |  | 
COCCCCCCC1CC(O)=C(C(=O)CC2CC2)C(=O)O1 (stereo not drawn) [Ex. 25, 3-(2-cyclopropylacetyl)-4-hydroxy-6-(6-methoxyhexyl)-5,6-dihydro-2H-pyran-2-one] | > 64 | > 20 |  | 
CCCCCCCCCC1CC(O)=C(C(=O)CC2CCOCC2)C(=O)O1 (stereo not drawn) [Ex. 26, 4-hydroxy-6-nonyl-3-(2-(tetrahydro-2H-pyran-4-yl)acetyl)-5,6-dihydro-2H-pyran-2-one] | 1.4 to 2.7 | 0.5 to 1 |  | 
N#CCCCCCCCC1CC(O)=C(C(=O)CC2CCOCC2)C(=O)O1 (stereo not drawn) [Ex. 27, 8-(4-hydroxy-6-oxo-5-(2-(tetrahydro-2H-pyran-4-yl)acetyl)-3,6-dihydro-2H-pyran-2-yl)octanenitrile] | 5.5 to 14 | 2 to 5 |  | 
N#CCCCCCCCC1CC(O)=C(C(=O)CC2CCCCC2)C(=O)O1 (stereo not drawn) [Ex. 28, 8-(5-(2-cyclohexylacetyl)-4-hydroxy-6-oxo-3,6-dihydro-2H-pyran-2-yl)octanenitrile] | > 55 | > 20 |  | 
C/C(=C\C(=O)OCCCCCCCCC(=O)O)C[C@@H]1OC[C@H](C[C@@H]2O[C@H]2[C@@H](C)[C@H](C)O)[C@@H](O)[C@H]1O [mupirocin, reference compound] |  |  |  | MIC [10]: > 256 µg/mL
